Results taken from patent publication US5733929A, “Pharmaceutical composition for treating or preventing allergic rhinitis” (Takeda Chemical Industries, Ltd., priority 1993, dated 1998).
Counter-ions that a name gives are not always drawn. One block for each compound: values may come before it.

Tests used:
[1] = system: allergic experimental rhinitis; assay: Experiment 1: inhibitory effects on allergic experimental rhinitis in guinea pigs (pigment leakage after antigen perfusion); type: in vivo; conditions: 30 mg/kg, oral, 1 hour before antigen
Experimental: Inhibitory effects on allergic experimental rhinitis in guinea pigs
Hartley male guinea pigs weighing 350 to 450 g were used. Aerosol of 1% ovalbumin (OA) in physiological saline was prepared using an ultrasonic nebulizer and administered to the guinea pigs by inhalation for 10 minutes. Thus the guinea pigs were sensitized. One week later, the antigen was administered again by inhalation, and the guinea pigs were used for this experiment after one week. The following experiment procedures were carried out by reference to the method of Kojima et al. (Allergy, Vol. 35, p. 180-187 (1986)).
The sensitized guinea pigs were anesthetized by administering pentobarbital (30 mg/kg) intraperitoneally. […] The collected sample was centrifuged at 3000 rpm for 10 minutes, and the absorbance of the supernatant at 620 nm was measured with a spectrophotometer to calculate the pigment concentration.
The drug was suspended in 5% gum arabic (G.A.) solution and was orally administered 1 hour before the antigen induction. The inhibitory ratio (%) was calculated as a ratio of the amount of the leaked pigment to the maximum amount of the leaked pigment in the control group 10 minutes after the antigen induction. […]

[2] = molecular target: T1, human platelet-derived TXA2 receptor (Homo sapiens, UniProt P21731); assay: binding of U-46619 to human platelet-derived TXA2 receptor expressing cells (TCHO-25), receptor assay
T1 construct: expressed in transfected cells
T1 sequence (P21731 1-343): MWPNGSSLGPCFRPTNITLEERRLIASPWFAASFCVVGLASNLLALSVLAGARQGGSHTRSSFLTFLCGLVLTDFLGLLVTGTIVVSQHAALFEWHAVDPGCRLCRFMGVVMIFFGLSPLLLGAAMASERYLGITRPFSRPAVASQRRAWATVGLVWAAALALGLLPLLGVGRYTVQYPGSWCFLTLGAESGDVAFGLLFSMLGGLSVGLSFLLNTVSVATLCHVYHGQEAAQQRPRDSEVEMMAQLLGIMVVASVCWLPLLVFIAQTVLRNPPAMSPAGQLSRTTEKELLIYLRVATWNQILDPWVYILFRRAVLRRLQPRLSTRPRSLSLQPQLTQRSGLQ
Source text: Effects on the binding of U-46619 (11-9-epoxymethane-PGH2, a substance having thromboxane A2 -like activity) to human platelet-derived TXA2 receptor expressing cells
A vector containing cDNA encoding TXA2 receptor (TXA2 .cndot.R) and a vector containing cDNA encoding dihydrofolate reductase were mixed in a ratio of 10:1, and are transferred simultaneously to Chinese hamster ovary (CHO) cells by the calcium phosphate method. Two days later, these cells were inoculated into a medium containing 0.3 mM proline, 10% bovine fetus serum and 0.1 μM methotrexate in a concentration of 2000 cells/well and incubated.

[3] = system: intranasal pressure increase induced by inhalation of antigens; assay: Experiment 5: intranasal pressure increase induced by inhalation of antigens in actively sensitized (involving IgE participation) guinea pigs; type: in vivo; conditions: p.o.; for Internasal pressure increase AUC(0-30 min): 5% G.A. 339 ± 55
Experimental: Hartley male guinea pigs weighing 300 to 400 g (Nippon SLC, Shizuoka, Japan) were anesthetized with pentobarbital (30 mg/kg, i.p.) and fixed on their backs. The cervical part was opened along the median line, the trachea was opened for maintaining respiration, and a cannula was inserted. A tube (JMS cutdown tube, 2.5 mm in outer diameter and 3.5 cm in length) was inserted from the opened site of the trachea into the nasal cavity. The other end of the tube was connected to a respirator (Harvard respirator, model 683), and air was sent into the nasal cavity at a tidal volume of 4 ml and a respiration rate of 70/min. Aerosol of U-46619 (30 μg/ml) solution was prepared using an ultrasonic nebulizer and sent into the nasal cavity for 3 minutes. Changes of the intranasal pressure were determined with a differential pressure transducer connected to the branch of the tube. To prevent air leakage into the oral cavity, the oral cavity was closed with an adhesive (Aron alpha, trade name). Effects on intranasal pressure increase induced by inhalation of antigens in actively sensitized (involving IgE participation) guinea pigs Hartley male guinea pigs weighing 300 to 400 g (Nippon SLC, Shizuoka, Japan) were immunized by a modified method of the method of Levine et al. Sensitization was carried out by intraperitoneally administering physiological saline (1 ml) containing ovalbumin (OA)(10 μg) and aluminium hydroxide gel (5 mg) 4 times every 2 weeks. The sensitized guinea pigs were used one week after the final administration. These guinea pigs were anesthetized with pentobarbital (30 mg/kg, i.p.). In a similar manner to that described in Experiment 4, changes of intranasal pressure were determined. Aerosol of OA (3%) was prepared using an ultrasonic nebulizer provided between the respirator and the intranasal tube, and sent into the nasal cavity for 3 minutes. The test drug was suspended in 5% G.A. solution and orally administered one hour before the OA inhalation.

[4] = system: intranasal pressure increase induced by antigen inhalation; assay: Experiment 6: intranasal pressure increase induced by antigen inhalation in guinea pigs sensitized by antigen inhalation; type: in vivo; conditions: p.o.; for Increase of intranasal pressure AUC(0-25 min): 5% G.A. 278 ± 35
Experimental: Hartley male guinea pigs weighing 300 to 400 g (Nippon SLC, Shizuoka, Japan) were anesthetized with pentobarbital (30 mg/kg, i.p.) and fixed on their backs. The cervical part was opened along the median line, the trachea was opened for maintaining respiration, and a cannula was inserted. A tube (JMS cutdown tube, 2.5 mm in outer diameter and 3.5 cm in length) was inserted from the opened site of the trachea into the nasal cavity. The other end of the tube was connected to a respirator (Harvard respirator, model 683), and air was sent into the nasal cavity at a tidal volume of 4 ml and a respiration rate of 70/min. Aerosol of U-46619 (30 μg/ml) solution was prepared using an ultrasonic nebulizer and sent into the nasal cavity for 3 minutes. Changes of the intranasal pressure were determined with a differential pressure transducer connected to the branch of the tube. To prevent air leakage into the oral cavity, the oral cavity was closed with an adhesive (Aron alpha, trade name). Effects on intranasal pressure increase induced by antigen inhalation in guinea pigs sensitized by antigen inhalation Aerosol of 1% OA solution in physiological saline was prepared and administered to Hartley male guinea pigs weighing 300 to 400 g (Nippon SLC, Shizuoka, Japan) by inhalation for 10 minutes. One week later, inhalation was performed again for sensitization. These animals were used as sensitized animals. In a similar manner to that described in Experiment 4, intranasal pressure was determined. The test drug was suspended in 5% G.A. solution and orally administered one hour before the antigen induction.

allergic rhinitis = assay: Experiment 2: effects of perfusion in nasal cavities on allergic rhinitis in guinea pigs (pigment leakage); type: in vivo; conditions: 5 mg/kg perfused in nasal cavity; increase Period-3 minus Period-1; 16 animals; 5% G.A. 13.83 ± 2.61
Experimental: Effects of perfusion in nasal cavities on allergic rhinitis in guinea pigs
Aerosol of 1% ovalbumin (OA) solution in physiological saline was prepared using an ultrasonic nebulizer (TUR-3200, Nippon Kohden, Tokyo, Japan), and administered to Hartley male guinea pigs weighing 300 to 350 g (Seiwa Jikken Dohbutsu, Fukuoka, Japan) by inhalation for 10 minutes in a polyacrylamide box (20×28×20 cm) once a week (twice in all). Thus the guinea pigs were sensitized. One week after the sensitization, the guinea pigs were anesthetized with pentobarbital sodium (30 mg/kg, i.p.) and fixed on their backs on a thermal pad (Deltaphase isothermal pad, Braintree Scientific, Inc.). The cervical part was opened along the median line, the trachea was opened, a trachea cannula was inserted into the pulmonary side, and the esophagus was ligated. On the other hand, a polyethylene tube (5.5 cm in length, 2.3 mm in outer diameter, Hibiki) connected to an infusion pump was inserted at the nasal side into the choana. […] The resulting perfusion solution was centrifuged at 15,000× g for 1.5 minutes, and the amount of the pigment in the supernatant was determined by absorbance at 610 nm. The activity of the drug was evaluated using as an indication the increased amount of the leaked pigment at Period-3 (i.e., (the amount of the pigment at Period-3)--(the amount of the pigment at Period-1)).

ICR male mice = assay: oral toxicity in mice; type: in vivo; conditions: 1000 mg/kg, five ICR male mice (5 weeks old), 7 days
Source text: The compounds to be used as an active ingredient in the present invention have low toxicity. […] The compound to be used as an active ingredient in the present invention can be used as it is or as a pharmaceutical composition (e.g., tablets, granules, capsules including soft capsules and microcapsules, liquid preparations, injections, suppositories, nasal drops, eye drops, etc.) prepared by mixing the compound with a per se known pharmaceutically acceptable carrier, diluent, excipient, etc., for treating or preventing allergic rhinitis, particularly nasal congestion in a mammal. The administration route may be oral or parenteral. The dose varies with the subject to be administered, administration route, symptoms, etc. For example, for oral administration to an adult patient, a unit dose of normally about 0.1 mg/kg to 20 mg/kg body weight, preferably 0.1 mg/kg to 10 mg/kg body weight is advantageously administered about once or twice a day.

Compound: COc1ccc(CN(CCN(C)C)c2ccccn2)cc1 [Mepyramine]
Inhibitory ratio (%) ([1]; Table 1, 9 animals): 81%
Inhibitory ratio (%) ([1]; Table 2, 10 animals, **P < 0.01): 77%

Kd ([2]; U-46619 based on TXA2 receptor on TCHO-25 cells, read-out: dissociation constant): 31 nM
Compound: CCCCC[C@H](O)/C=C/[C@@H]1[C@@H](C/C=C\CCCC(=O)O)[C@H]2CO[C@@H]1C2 [Compound U-46619, 11-9-epoxymethane-PGH2, reference compound]

Compound: CN1CCCC(n2nc(Cc3ccc(Cl)cc3)c3ccccc3c2=O)CC1 (stereo not shown) [Azelastine hydrochloride, reference compound]
Internasal pressure increase AUC(0-30 min) ([3]; 1.0 mg/kg, 8 animals, **P < 0.01): 92 ± 14
Inhibitory ratio (%) ([3]; 1.0 mg/kg, AUC(0-30 min), 8 animals): 73%
Increase of intranasal pressure AUC(0-25 min) ([4]; 1.0 mg/kg, 7 animals, marked **): 157 ± 35
Inhibitory ratio (%) ([4]; 1.0 mg/kg, AUC(0-25 min), 7 animals): 44%

Compound: CC1=C(C)C(=O)C(C(CCCCCC(=O)O)c2ccccc2)=C(C)C1=O (racemic) [Compound 1, (±)-7-(3,5,6-trimethyl-1,4-benzoquinon-2-yl)-7-phenylheptanoic acid]
inhibition of the binding of U-46619 to TXA2 receptor (mode) ([2]; TCHO-25 cells): competitively inhibited
Pigment concentration (allergic rhinitis): 8.87 ± 2.47 µg/mL
Internasal pressure increase AUC(0-30 min) ([3]; 0.3 mg/kg, 12 animals): 208 ± 44
Internasal pressure increase AUC(0-30 min) ([3]; 3.0 mg/kg, 12 animals): 241 ± 32
Internasal pressure increase AUC(0-30 min) ([3]; 30 mg/kg, 13 animals, *P < 0.05): 183 ± 36
Increase of intranasal pressure AUC(0-25 min) ([4]; 0.3 mg/kg, 7 animals): 246 ± 44
Increase of intranasal pressure AUC(0-25 min) ([4]; 3.0 mg/kg, 8 animals): 201 ± 41
Increase of intranasal pressure AUC(0-25 min) ([4]; 30 mg/kg, 7 animals, *P < 0.05): 143 ± 19
mortality (ICR male mice): no mice died
